Laboratory results as given in ChEMBL document CHEMBL5233273, “An overview of hydroxypyranone and hydroxypyridinone as privileged scaffolds for novel drug discovery” (Eur J Med Chem, 2021).
Converted amounts (≈) assume the structure as drawn.

System: Mycolicibacterium smegmatis
Assay: Antimycobacterial activity against Mycobacterium smegmatis
Type: functional
Conditions: not given

In order of falling MIC:
1. Cc1cc(=O)c(O)c(CN2CCCC(C)C2)o1 (configuration not stated)  8 µg/mL (≈ 33.7 µM)
2. Cc1cc(=O)c(O)c(CN2CCCC(O)C2)o1 (configuration not stated)  8 µg/mL (≈ 33.4 µM)
3. Cc1cc(=O)c(O)c(CN2CCC(c3ccc(O)cc3)CC2)o1  8 µg/mL (≈ 25.4 µM)
4. Cc1cc(=O)c(O)c(CN2CCC(CO)CC2)o1  8 µg/mL (≈ 31.6 µM)
5. Cc1cc(=O)c(O)c(CN2CCC(c3ccccc3)CC2)o1  8 µg/mL (≈ 26.7 µM)
6. CCCC1CCN(Cc2oc(C)cc(=O)c2O)CC1  8 µg/mL (≈ 30.1 µM)

Target: not listed separately
Assay: Inhibition of HIV-1 integrase
Design: species or system Human immunodeficiency virus 1
Conditions: not given

In order of falling EC50:
1. Cc1cc(=O)c(O)c(C(=O)NCc2ccc(Cl)cc2)o1  1950 nM
2. Cc1cc(=O)c(O)c(C(=O)NCc2ccc(F)cc2)o1  700 nM

In order of rising IC50:
1. Cc1cc(=O)c(O)c(C(=O)NCc2ccc(F)cc2)o1  370 nM
2. Cc1cc(=O)c(O)c(C(=O)NCc2ccc(Cl)cc2)o1  1720 nM

System: Mycobacterium tuberculosis
Assay: Antitubercular activity against Mycobacterium tuberculosis H37Rv ATCC 27294
Type: functional
Conditions: not given

Work on `O=C(C1CCCCC1)N1CCN(Cc2oc(CCl)cc(=O)c2O)CC1` yielded an MIC of 4 µg/mL (≈ 10.8 µM).

System: not listed separately
Assay: Neuroprotective activity in CGC cells assessed as inhibition of lipid peroxidation
Type: functional, cell-based
Conditions: cerebellar granule neurone

In order of rising IC50:
1. Cc1c(O)c(=O)ccn1CCc1cc(C(C)(C)C)c(O)c(C(C)(C)C)c1  300 nM
2. Cc1c(O)c(=O)ccn1CCSc1cc(C(C)(C)C)c(O)c(C(C)(C)C)c1  400 nM

System: Mycobacterium avium
Assay: Antitubercular activity against Mycobacterium avium ATCC 15769
Type: functional
Conditions: not given

For `O=C(C1CCCCC1)N1CCN(Cc2oc(CCl)cc(=O)c2O)CC1`, the MIC was 4 µg/mL (≈ 10.8 µM).

Target: Histamine H3 receptor (Homo sapiens, UniProt Q9Y5N1)
Sequence (Q9Y5N1 whole entry): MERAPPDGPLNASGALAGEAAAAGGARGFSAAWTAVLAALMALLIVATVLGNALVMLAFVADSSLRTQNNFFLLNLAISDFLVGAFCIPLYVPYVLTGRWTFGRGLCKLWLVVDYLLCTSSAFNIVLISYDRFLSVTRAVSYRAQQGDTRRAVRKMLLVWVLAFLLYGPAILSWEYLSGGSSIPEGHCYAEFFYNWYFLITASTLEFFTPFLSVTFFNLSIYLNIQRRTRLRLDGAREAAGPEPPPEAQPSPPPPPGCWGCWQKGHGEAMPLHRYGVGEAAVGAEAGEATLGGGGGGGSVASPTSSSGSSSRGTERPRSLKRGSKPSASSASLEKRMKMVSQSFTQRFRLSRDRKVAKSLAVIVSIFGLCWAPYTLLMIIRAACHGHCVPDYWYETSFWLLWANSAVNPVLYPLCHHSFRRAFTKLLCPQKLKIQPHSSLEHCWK
Assay: Binding affinity to human H3R expressed in HEK293 cells membrane
Type: cell membranes
Conditions: not given

In order of falling Ki:
1. O=c1cc(CNCc2ccc(OCCCN3CCCCC3)cc2)occ1O  31.6 nM
2. O=c1cc(CN(Cc2ccc(OCCCN3CCCCC3)cc2)Cc2cc(=O)c(O)co2)occ1O  10 nM

System: Staphylococcus aureus
Assay: Antibacterial activity against Staphylococcus aureus assessed as zone of inhibition
Type: functional
Conditions: not given

In order of falling “inhibition zone (IZ)” value:
1. O=C(/C=C/c1ccc(C(=O)OCc2cc(=O)c(O)co2)cc1)c1ccc(Br)cc1  8 mm
2. O=C(/C=C/c1ccc(C(=O)OCc2cc(=O)c(O)co2)cc1)c1ccccc1  8 mm

Target: DNA gyrase (Escherichia coli, UniProt P0AES4+P0AES6)
Assay: Inhibition of Escherichia coli DNA gyrase
Type: protein-complex assay
Conditions: not given

In order of rising IC50:
1. O=C(N[C@H]1CCc2nc(NCc3cc(=O)c(O)co3)sc2C1)c1cc(Br)c(Br)[nH]1  180 nM
2. Cc1[nH]c(C(=O)N[C@H]2CCc3nc(NC(=O)[C@H](C)NC(=O)c4cc(=O)c(O)c[nH]4)sc3C2)c(Cl)c1Cl  260 nM
3. Cc1[nH]c(C(=O)N[C@H]2CCc3nc(NC(=O)CCNC(=O)c4cc(=O)c(O)c[nH]4)sc3C2)c(Cl)c1Cl  350 nM
4. Cc1[nH]c(C(=O)N[C@H]2CCc3nc(NC(=O)[C@@H](NC(=O)c4cc(=O)c(O)c[nH]4)C(C)C)sc3C2)c(Cl)c1Cl  640 nM
5. Cc1[nH]c(C(=O)N[C@H]2CCc3nc(NCc4cc(=O)c(O)co4)sc3C2)c(Cl)c1Cl  2100 nM

Target: T1, Tyrosinase (Agaricus bisporus, UniProt O42713)
T1 sequence (O42713 whole entry): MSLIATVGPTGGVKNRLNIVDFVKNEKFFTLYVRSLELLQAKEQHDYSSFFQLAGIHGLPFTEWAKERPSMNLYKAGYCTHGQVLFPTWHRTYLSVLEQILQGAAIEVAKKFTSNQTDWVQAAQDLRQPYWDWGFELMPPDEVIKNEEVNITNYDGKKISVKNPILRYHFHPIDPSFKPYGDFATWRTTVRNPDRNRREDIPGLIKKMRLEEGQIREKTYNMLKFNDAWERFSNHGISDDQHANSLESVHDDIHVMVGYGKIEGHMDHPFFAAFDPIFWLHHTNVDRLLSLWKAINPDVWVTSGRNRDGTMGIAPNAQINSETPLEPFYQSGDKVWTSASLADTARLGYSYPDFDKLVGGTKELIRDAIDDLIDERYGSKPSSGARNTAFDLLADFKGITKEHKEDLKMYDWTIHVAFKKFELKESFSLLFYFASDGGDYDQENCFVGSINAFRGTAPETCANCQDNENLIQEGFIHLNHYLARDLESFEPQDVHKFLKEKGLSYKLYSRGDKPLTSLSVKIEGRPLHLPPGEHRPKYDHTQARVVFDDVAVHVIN
Assay: Inhibition of mushroom tyrosinase
Conditions: not given

In order of rising IC50:
1. O=c1cc(Cn2cc(COc3ccc(F)cc3)nn2)occ1O  60 nM
2. COc1ccc(OCc2cn(Cc3cc(=O)c(O)co3)nn2)cc1  60 nM
3. COc1cc(OC)cc(OCc2cn(Cc3cc(=O)c(O)co3)nn2)c1  60 nM
4. O=c1cc(Cn2cc(COc3ccc(Br)cc3)nn2)occ1O  60 nM
5. O=c1cc(Cn2cc(COc3cccc(F)c3)nn2)occ1O  60 nM
6. CC(=O)Nc1ccc(OCc2cn(Cc3cc(=O)c(O)co3)nn2)cc1  60 nM
7. N#Cc1ccc(OCc2cn(Cc3cc(=O)c(O)co3)nn2)cc1  60 nM
8. O=c1cc(Cn2cc(COc3ccc([N+](=O)[O-])cc3)nn2)occ1O  60 nM
9. O=c1cc(Cn2cc(COc3ccc(Cl)cc3)nn2)occ1O  60 nM
10. O=c1cc(Cn2cc(COc3ccc(Cl)cc3Cl)nn2)occ1O  60 nM
11. O=c1cc(Cn2cc(COc3cccc(Cl)c3)nn2)occ1O  60 nM
12. O=c1cc(Cn2cc(COc3ccc(CO)cc3)nn2)occ1O  60 nM
13. COc1cc(OCc2cn(Cc3cc(=O)c(O)co3)nn2)cc(OC)c1OC  60 nM
14. O=c1cc(Cn2cc(COc3ccccc3)nn2)occ1O  60 nM
15. O=c1cc(CSc2ccc(O)cc2)occ1O  540 nM
16. O=C(OCc1cc(=O)c(O)co1)c1ccc2c(c1)OCO2  1520 nM
17. O=C(OCc1cc(=O)c(O)co1)c1ccc2c(c1)OCCO2  1520 nM
18. O=C(/C=C/c1ccc2c(c1)OCCO2)OCc1cc(=O)c(O)co1  1520 nM
19. Nn1c(SCc2cc(=O)c(O)co2)nnc1-c1ccc(Cl)cc1  4500 nM
